Results on nine molecules are retold here after ChEMBL document CHEMBL1201862, “PubChem BioAssay data set” (2004).

Among the test systems are A498; ACHN; CAKI-1; CCRF-CEM; COLO 205; DU-145; EKVX; HCT-116; HL-60; IGROV-1; MOLT-4; Malme-3M; NCI-H522; SF-295; SK-MEL-5; SK-OV-3; SNB-19; SNB-75; SW-620; TK-10.
Holding throughout (experiment): inhibition of tumour cell growth, NCI panel, 48 h

SMILES strings stand for the structures.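 Method: 48-hour compound exposure of cells in 96-well plates, five concentrations, linear interpolation of endpoints. At the GI50, growth is halved.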 Active and inactive are the calls of the source. Cut-off read from the data, not from the text of the source: active = GI50 up to about 1.1 µM and inactive = higher.

`COC(=O)CC1C=CC(C)(OC)OO1` (stereo not given): the GI50 with A498 is > 100 µM (inactive); in the assay with ACHN, 94.4 µM (inactive); with CAKI-1, > 100 µM (inactive); in the assay with CCRF-CEM it was 15.7 µM (inactive); with COLO 205 it was 55.7 µM (inactive); with DU-145 it was > 100 µM (inactive). In addition, the GI50 in the assay with EKVX was > 100 µM (inactive); with HCT-116, > 100 µM (inactive); with HL-60, 21 µM (inactive); with IGROV-1, > 100 µM (inactive); with MOLT-4, > 10 µM (inactive); in the assay on Malme-3M it was 78.7 µM (inactive). In addition, the GI50 was 16.9 µM (inactive) in the assay on NCI-H522; > 100 µM (inactive) in the assay with SF-295; > 100 µM (inactive) in the assay on SK-MEL-5; > 100 µM (inactive) with SK-OV-3; > 100 µM (inactive) with SNB-19; > 100 µM (inactive) in the assay with SNB-75. The GI50 with SW-620 is 27.2 µM (inactive); in the assay with TK-10, > 100 µM (inactive).
`N#CC1(C#N)NC(c2ccsc2)C(C#N)(C#N)NC1c1ccsc1` (stereo not given): the GI50 in the assay on A498 is > 100 µM (inactive); in the assay with ACHN it was > 100 µM (inactive); in the assay on CAKI-1 it was > 100 µM (inactive); in the assay on CCRF-CEM, 80.2 µM (inactive); in the assay on COLO 205 it was > 100 µM (inactive); with DU-145, > 100 µM (inactive). The GI50 in the assay on EKVX, in the assay with HCT-116, in the assay on HL-60, in the assay with IGROV-1, with MOLT-4 and with Malme-3M was > 100 µM (inactive) each time. Besides, the GI50 in the assay with NCI-H522, with SF-295, in the assay with SK-MEL-5, with SK-OV-3, in the assay on SNB-19 and in the assay with SNB-75 was > 100 µM (inactive) each time. In addition, the GI50 in the assay on SW-620 and in the assay with TK-10 was > 100 µM (inactive) each time.
Regarding `FC1(F)ON2CCc3ccccc3C2[C@H]1c1ccccc1` (stereo not given in full), the GI50 is > 10 µM (inactive) in the assay with A498; > 10 µM (inactive) with ACHN; > 10 µM (inactive) in the assay with CAKI-1; > 100 µM (inactive) with CCRF-CEM; > 10 µM (inactive) in the assay on COLO 205; > 10 µM (inactive) in the assay on DU-145. Moreover, the GI50 in the assay on EKVX was > 10 µM (inactive); in the assay on HCT-116, 65.6 µM (inactive); in the assay with HL-60 it was > 10 µM (inactive); in the assay with IGROV-1, > 10 µM (inactive); with MOLT-4, > 10 µM (inactive); with Malme-3M it was 2.22 µM (inactive). The GI50 was > 10 µM (inactive) with NCI-H522; > 10 µM (inactive) in the assay with SF-295; > 10 µM (inactive) in the assay on SK-MEL-5; > 10 µM (inactive) in the assay on SK-OV-3; > 10 µM (inactive) in the assay with SNB-19; 16.7 µM (inactive) with SNB-75. The GI50 in the assay on SW-620 and in the assay on TK-10 was > 10 µM (inactive) each time.
Regarding `Cc1cc(N2CCN(C)CC2)n2nc(-c3ccc(Cl)cc3)nc2n1`, the GI50 is 43.3 µM (inactive) in the assay with A498; 50.6 µM (inactive) with ACHN; > 100 µM (inactive) in the assay on CAKI-1; 11.5 µM (inactive) with CCRF-CEM; 81.7 µM (inactive) with COLO 205; > 100 µM (inactive) in the assay on DU-145. Further, the GI50 was 80.5 µM (inactive) with EKVX; 61.7 µM (inactive) with HCT-116; 27.3 µM (inactive) in the assay with HL-60; > 100 µM (inactive) in the assay with IGROV-1; 34.8 µM (inactive) in the assay on MOLT-4; > 100 µM (inactive) in the assay with Malme-3M. In addition, the GI50 with NCI-H522 was 84.7 µM (inactive); in the assay on SF-295, 91.2 µM (inactive); in the assay with SK-MEL-5 it was 50.2 µM (inactive); in the assay on SK-OV-3, > 100 µM (inactive); in the assay with SNB-19, > 100 µM (inactive); with SNB-75, 66.7 µM (inactive). For the same molecule, the GI50 in the assay with SW-620 was > 100 µM (inactive); with TK-10, 68.1 µM (inactive).
`C/C(=N\NC(=S)N1CC2CCC(CC2)C1)c1nccs1`: the GI50 was 1.8 µM (inactive) in the assay with A498; 0.3 µM (active) in the assay with ACHN; 0.634 µM (active) in the assay on CAKI-1; < 0.01 µM (active) in the assay on CCRF-CEM; 0.0145 µM (active) in the assay on COLO 205; 0.255 µM (active) with DU-145. In addition, the GI50 in the assay with EKVX is 0.0789 µM (active); in the assay on HCT-116 it was < 0.0187 µM (active); in the assay on HL-60, < 0.01 µM (active); in the assay with IGROV-1, 0.158 µM (active); in the assay on MOLT-4, < 0.0196 µM (active); with Malme-3M, 0.435 µM (active). Besides, the GI50 is 0.0471 µM (active) in the assay on NCI-H522; 0.296 µM (active) with SF-295; 0.153 µM (active) in the assay on SK-MEL-5; 0.809 µM (active) with SK-OV-3; 0.741 µM (active) in the assay on SNB-19; 3.33 µM (inactive) with SNB-75. Further, the GI50 was 0.11 µM (active) with SW-620 and 0.975 µM (active) with TK-10.
`COC(=O)C1=C(C(=O)OC)C2(c3ccccc3)c3ccccc3C(=O)C1N2C1CCCCC1` (stereo not given): the GI50 in the assay on A498 is > 66.1 µM (inactive); with ACHN, 29.2 µM (inactive); in the assay on CAKI-1, 49.1 µM (inactive); in the assay on CCRF-CEM it was 26.7 µM (inactive); with COLO 205, 16.8 µM (inactive); in the assay on DU-145, > 100 µM (inactive). Further, the GI50 in the assay on EKVX was 55.6 µM (inactive); with HCT-116, 14.7 µM (inactive); in the assay with HL-60, 3.1 µM (inactive); with IGROV-1, 49.4 µM (inactive); in the assay with MOLT-4 it was 6.61 µM (inactive); in the assay with Malme-3M it was 58.2 µM (inactive). For the same molecule, the GI50 with NCI-H522 is 34.6 µM (inactive); in the assay with SF-295 it was 25.5 µM (inactive); with SK-MEL-5, 26.2 µM (inactive); with SK-OV-3, > 96.2 µM (inactive); with SNB-19, > 63.4 µM (inactive); in the assay on SNB-75 it was > 66.8 µM (inactive). Also, the GI50 in the assay on SW-620 was 41.3 µM (inactive); in the assay on TK-10 it was 31.3 µM (inactive).
In the case of `N=C(N)N/N=C/c1c(-c2ccccc2)nc2ccn3c(/C=N/N=C(N)N)c(-c4ccccc4)nc3n12`, the GI50 in the assay with A498 was 46.8 µM (inactive); in the assay on ACHN it was 21.8 µM (inactive); with CAKI-1, > 100 µM (inactive); with CCRF-CEM, > 100 µM (inactive); with COLO 205, 43.3 µM (inactive); in the assay with DU-145, 58.1 µM (inactive). The GI50 in the assay with EKVX is 21.9 µM (inactive); with HCT-116 it was 26.6 µM (inactive); in the assay on HL-60, 72.6 µM (inactive); in the assay on IGROV-1, 2.11 µM (inactive); with MOLT-4, > 100 µM (inactive); with Malme-3M it was 26.2 µM (inactive). The GI50 with NCI-H522 was 21.3 µM (inactive); in the assay on SF-295, 55.3 µM (inactive); in the assay with SK-MEL-5, 48.4 µM (inactive); in the assay on SK-OV-3, 37.7 µM (inactive); with SNB-19, 20.3 µM (inactive); in the assay on SNB-75 it was > 100 µM (inactive). Besides, the GI50 in the assay with SW-620 is 36.9 µM (inactive); in the assay with TK-10 it was 59 µM (inactive).
Regarding `COc1ccc(N2C(=O)CC(=O)N(NC(=O)C(C)Oc3ccccc3C)C2=S)cc1` (stereo not given), the GI50 in the assay with A498, in the assay with ACHN, in the assay on CAKI-1, in the assay on CCRF-CEM, with COLO 205 and in the assay with DU-145 was > 100 µM (inactive) throughout. Besides, the GI50 in the assay with EKVX, in the assay on HCT-116, in the assay on HL-60, with IGROV-1, in the assay on MOLT-4 and in the assay on Malme-3M was > 100 µM (inactive) each time. Besides, the GI50 in the assay with NCI-H522, in the assay with SF-295, with SK-MEL-5, in the assay with SK-OV-3, with SNB-19 and with SNB-75 was > 100 µM (inactive) in each case. Also, the GI50 in the assay on SW-620 and in the assay on TK-10 was > 100 µM (inactive) throughout.
For `FC(F)(F)C1(c2ccccc2)SCc2nc3ccccc3n21` (stereo not given), the GI50 with A498 is > 100 µM (inactive); in the assay with ACHN, > 100 µM (inactive); in the assay on CAKI-1, > 100 µM (inactive); in the assay on CCRF-CEM, 88.1 µM (inactive); in the assay with COLO 205, > 100 µM (inactive); with DU-145, > 100 µM (inactive). For the same molecule, the GI50 with EKVX is > 100 µM (inactive); in the assay with HCT-116, 65.5 µM (inactive); with HL-60 it was 24.2 µM (inactive); in the assay with IGROV-1, > 100 µM (inactive); with MOLT-4 it was 61.7 µM (inactive); in the assay with Malme-3M it was > 100 µM (inactive). For the same molecule, the GI50 in the assay on NCI-H522 is 55.6 µM (inactive); in the assay on SF-295, > 100 µM (inactive); in the assay with SK-MEL-5, 66.1 µM (inactive); with SK-OV-3, > 100 µM (inactive); in the assay on SNB-19 it was > 100 µM (inactive); in the assay with SNB-75, 88.1 µM (inactive). The GI50 in the assay with SW-620 and in the assay with TK-10 was > 100 µM (inactive) throughout.
